Test results reported in patent US20260144883A1, “ANTI-TROP2/EGFR ANTIBODIES AND USES THEREOF” (XADCERA BIOPHARMACEUTICAL (SUZHOU) CO., LTD., priority 2022, published 2026).

Assays:
Assay in all cases: In vitro killing activity (CellCounting-Lite 2.0, 7 days)
Assay type in all cases: cell-based
[1] = system: HCC827 cells; conditions: Homo sapiens, 168 h
[2] = system: NCI-H292 cells; conditions: Homo sapiens, 168 h
[3] = system: A431 cells; conditions: Homo sapiens, A-431, 168 h
[4] = system: Panc 02.03 cells; conditions: Homo sapiens, Panc 02.03, 168 h

CC[C@@]1(O)C(=O)OCc2c1cc1n(c2=O)Cc2c-1nc1ccc(N)c3c1c2CCO3 [CPT2, (S)-4-amino-9-ethyl-9-hydroxy-1,9,12,15-tetrahydro-13H-pyrano[4,3,2-de]pyrano[3′,4′:6,7]indolizino[1,2-b]quinoline-10,13(2H)-dione]
IC50 [1]: 1.69 nM
IC50 [2]: 0.728 nM
IC50 [3]: 1.38 nM
IC50 [4]: 0.981 nM
